The target of data set [1] is T1, KIX domain of mouse CBP (Mus musculus, UniProt P45481).
T1 construct: KIX domain of mouse CBP (Uniprot 45481, residues 586–672); hexahistidine tag with thrombin cleavage site (N, cleaved yes); made in house; host or cells: Escherichia coli C41 (DE3)
Put plainly: Stopped-flow anisotropy kinetics, temperature dependence. Type of data set: binding. As to the method: The synthetic gene for the KIX domain of mouse CBP (Uniprot 45481, residues 586–672) was obtained from Genscript. The gene was inserted into a modified version of the pRSET A vector that encodes an N-terminal hexahistidine tag with a thrombin cleavage site between the tag and the protein. Protein expression was carried out in Escherichia coli C41 (DE3) grown in 2xTY media at 37 °C. Expression was induced once the cells reached an optical density of 0.4–0.6 AU at 600 nm, by adding IPTG to a final concentration of 0.1 mM and reducing the temperature to 18 °C. The cells were grown overnight and harvested by centrifugation. […] Bound protein was eluted with 250 mM imidazole, and the his-tag cleaved by overnight incubation with thrombin at room temperature. The protein was further purified by gel filtration using a Superdex G75 column in pH 7.4 100 mM sodium phosphate buffer. For ionic strength studies, KIX protein was buffer exchanged and stored in ddH2O. The concentration of KIX stocks was determined using an extinction coefficient of 12 009 M^–1 cm^–1 at 280 nm obtained by the method of Gill von Hippel.[18]
N-terminally labeled FITC-cMyb peptide (Uniprot P06876, residues 291–315) was purchased from Biomatik. 1 mg aliquots were dissolved at 1–2 mg/mL in ddH2O as required. The stock concentration was determined from the absorbance at 493 nm of a 20-fold dilution into biophysical buffer, using an extinction coefficient of 75 000 M^–1 cm^–1. Sodium phosphate, MOPS, and sodium chloride were purchased from Sigma. […]
Association kinetics were monitored by following the change in anisotropy of FITC-cMyb on binding using a SX20 stopped-flow spectrometer (Applied Photophysics) with an FP1 fluorescence polarization accessory. […] Anisotropy values reported from stopped-flow have not been corrected for background fluorescence.
In temperature studies, KIX solutions of various concentrations were mixed 1:1 with 1 μM FITC-cMyb. […] Dissociation rate constants (koff) were calculated from the relation koff = Kdkon, which is appropriate for two-state bimolecular reactions (see Results). […]

Data set [2] has as its target T1, KIX domain of mouse CBP. In words: Stopped-flow anisotropy kinetics, ionic strength dependence (MOPS). Type of data set: binding. The procedure:
Two separate buffer types were utilized in these studies. First, 100 mM sodium phosphate buffer, pH 7.4, the pH of which is relatively insensitive to temperature changes, was used for the temperature studies. Second, 20 mM MOPS (pH 7.30 ± 0.02 at 10 °C) with a range of sodium chloride concentrations was used in ionic strength studies. MOPS buffers in the same range as phosphate but has a lower ionic strength because of its lower valency, enabling a larger range of ionic strengths to be investigated. We observed that the rate of association was slightly lower in phosphate buffer, considering our estimates of its ionic strength. In addition, 0.05% tween-20 was included in all biophysical buffers to avoid nonspecific interactions with plastic-ware.
In preparing solutions for kinetic assays, dilutions of KIX and FITC-cMyb stocks were weighed, so that accurate concentrations (accounting for solution density) were obtained.
Association kinetics were monitored by following the change in anisotropy of FITC-cMyb on binding using a SX20 stopped-flow spectrometer (Applied Photophysics) with an FP1 fluorescence polarization accessory. […] Anisotropy values reported from stopped-flow have not been corrected for background fluorescence. […]
The variation in association rate constant with ionic strength (I) was modeled with a Debye–Huckel-like approximation that has been determined empirically (eq 4).[24] […]

For data set [3] the following is noted: cited from earlier work. The procedure: The charge on KIX and cMyb at pH 7.4 was estimated using average pKa values reported for amino acids in globular proteins and model peptides.[54] The charge for FITC-cMyb was corrected to account for N-terminal addition of FITC. At pH 7.3–7.4 and 25 °C, fluoroscein exists predominantly as a dianion (∼90%), with some anion (∼10%), the equilibrium between the two species being described by a protolytic constant of 6.43.[27]

Data set [4] is described as follows: Circular dichroism, secondary structure. Conditions: CD. In kind it is physicochemical. The procedure: Circular dichroism (CD) scans were performed with an Applied Photophysics Chirascan, in cuvettes of 1 or 0.2 mm path length. In mixing experiments, individual solutions of FITC-cMyb and KIX in pH 7.4 100 mM sodium phosphate (0.05% tween-20) were prepared, and aliquots removed for mixing in a 1:1 ratio. Spectra were obtained for all three solutions and buffer subtracted. The expected spectrum in the absence of protein interaction was calculated as the average of the two spectra for the individual protein solutions. Helical content for FITC-cMyb alone was variously estimated as 28, 30, and 37% using the methods of Perez-Iratxeta et al.,[19] Morriset et al.,[20] and Chen et al.,[21] respectively.

The target in data set [5] is CBP KIX (Mus musculus) (UniProt P45481). Conditions: cited from earlier work.
Chain of CBP KIX (Mus musculus) (P45481 583-668): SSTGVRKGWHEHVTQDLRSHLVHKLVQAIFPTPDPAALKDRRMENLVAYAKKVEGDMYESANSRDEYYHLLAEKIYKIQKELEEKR
The target in data set [6] is KIX. Conditions: pH 7, 27 °C; read-out: dissociation constant of unlabeled cMyb by ITC; cited from earlier work. An excerpt: Second, the peptide was still observed to bind to KIX protein. On mixing FITC-cMyb with KIX, a reliable increase in the an ...
The subject of data set [7] is pseudo-wild-type of KIX with a single point tryptophan mutation in the binding site (and an attached his-tag). Conditions: cited from earlier work. The text has this: Association kinetics for this complex have recently been reported by Gianni et al., for a pseudo-wild-type of KIX with a single point tryptophan mutation in the binding site (and an attached his-tag).[46] […] After correction for the expected number of molecule collisions, the rate is still temperature dependent (Figure 3), which indicates the presence of an activation barrier that slows the association process. We stop short of interpreting the gradient of this plot (10.9 ± 0.7 kcal/mol) as the enthalpic barrier for folding. First, from CD denaturation studies (Figure S4, Supporting Information), it is clear that even over this narrow range of temperature there are conformatio ...

The subject of data set [8] is KIX. Conditions: NMR structure of the complex; cited from earlier work. The text has this: We confirmed this increase in helicity on binding by comparing CD measurements of the individual components and mixtures ...
Data set [9] deals with KIX domain of mouse CBP (residues 586-672) (mouse, UniProt P45481 586-672). Put plainly: fluorescence polarisation; equilibrium anisotropy; 1 uM FITC-cMyb incubated 1 h with varying concentrations of KIX; 100 mM sodium phosphate pH 7.4, 0.05% tween-20; 25 °C; fit to eq 2. Conditions: both partners purified.
Chain of KIX domain of mouse CBP (residues 586-672) (P45481 586-672): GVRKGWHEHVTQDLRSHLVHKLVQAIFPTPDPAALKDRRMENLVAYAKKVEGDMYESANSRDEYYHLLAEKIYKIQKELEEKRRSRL
For data set [10], the system named is barnase. Conditions: with barnase, cited from earlier work. An excerpt: Although these rates are fast, they are nothing remarkable in themselves. […] The most famous example of such rate enhancement is for the two folded proteins barnase and barstar, which have been described as “ultrafast” associating proteins. At low ionic strengths, the reported kon is over 5 × 10^9 M^–1 s^–1; however, extrapolation to infinite ionic strength to obtain an esti ...

Several values for one entry are separate records, joined by “and”; a condition that tells them apart may be missing. Equal entries are not always repeated. Where two headings read alike, the source gives them in different places. Ends that are not written are not given here. * marks the point of attachment. FITC = O=C1OC2(c3ccc(O)cc3Oc3cc(O)ccc32)c2ccc(NC(=S)*)cc21 Bounds are passed on as bounds.

T1 sequence (P45481 586-672): as above

For `CC[C@H](C)[C@H](NC(=O)[C@H](CCCNC(=N)N)NC(=O)[C@H](CCCCN)NC(=O)[C@H](CCC(=O)O)NC(=O)[C@H](CCCCN)NC(=S)Nc1ccc2c(c1)C(=O)OC21c2ccc(O)cc2Oc2cc(O)ccc21)C(=O)N[C@@H](CCCCN)C(=O)N[C@@H](CCC(=O)O)C(=O)N[C@@H](CC(C)C)C(=O)N[C@@H](CCC(=O)O)C(=O)N[C@@H](CC(C)C)C(=O)N[C@@H](CC(C)C)C(=O)N[C@@H](CC(C)C)C(=O)N[C@@H](CCSC)C(=O)N[C@@H](CO)C(=O)N[C@H](C(=O)N[C@@H](CCC(=O)O)C(=O)N[C@@H](CC(N)=O)C(=O)N[C@@H](CCC(=O)O)C(=O)N[C@@H](CC(C)C)C(=O)N[C@@H](CCCCN)C(=O)NCC(=O)N[C@@H](CCC(N)=O)C(=O)N[C@@H](CCC(N)=O)C(=O)N[C@@H](C)C(=O)N[C@@H](CC(C)C)C(=O)O)[C@@H](C)O` [FITC-cMyb], the koff in data set [1] (25 °C, extrapolated from temperature dependence, pH 7.4 100 mM sodium phosphate, read-out: koff extrapolated to 25 °C) was 230 ± 20 s⁻¹; in [1] (physiological conditions, expected, read-out: dissociation rate under physiological conditions), more than 300 s⁻¹. Besides, the kon in data set [1] (pH 7.4, read-out: kon extrapolated to 25 °C) was approximately 2.2e+07 M⁻¹ s⁻¹; in data set [2] (25 °C, from 10 °C basal rate and temperature dependence study, read-out: basal association rate constant estimated at 25 °C), 2.1e+07 M⁻¹ s⁻¹; in data set [2] (pH 7.3, 10 °C, 20 mM MOPS pH 7.30, extrapolated with Debye–Huckel-like approximation (eq 4), read-out: basal association rate constant (infinite ionic strength)), 7.7e+06 M⁻¹ s⁻¹.

For `O=C1OC2(c3ccc(O)cc3Oc3cc(O)ccc32)c2ccccc21` [fluoroscein], in data set [3] (25 °C), the “protolytic constant (dianion/anion)” value is recorded as 6.43. Also, in [3] (pH 7.3–7.4, 25 °C), the fraction as anion was approximately 10% and the fraction as dianion is on record as approximately 90%.

Regarding “KIX: KIX domain of mouse CBP (Uniprot 45481, residues 586–672)”, the “reversibility of thermal denaturation / aggregation” value in data set [4] (10 to 80 °C, indicative of aggregation at higher temperatures) is listed as “Apparent nonreversibility”. Also, the “secondary structure over ionic strength range” value in data set [4] (MOPS buffers, 10 to 750 mM ionic strength, 10 °C) was “no significant change in the secondary structure”. Moreover, the “effect of temperature on helical content” value in [4] (thermal denaturation, pH 7.4 100 mM sodium phosphate, 10 to 80 °C) is “Helical content was reduced on increasing temperature”.

“cMyb transactivation domain (from UniProt P06876)”: the Kd in [5] was 10 µM and 12.5 µM.

In the case of “cMyb: 25 amino acid peptide from the TAD of cMyb, unlabeled”, the “residual α-helical content, unbound state (summary)” value in [4] (free peptide, pH 7.4 100 mM sodium phosphate) is listed as “around 30%”. For the same molecule, the Kd in data set [6] was 10 µM. Also, in data set [7] (25 °C, relatively similar buffer conditions, complex with pseudo-wild-type KIX), the “fold lower binding affinity than reported here” value was 3 fold. Besides, in [7] (TFE), the “decrease of dissociation rate on partial helix stabilization by TFE” value is “around 5 fold” and the “increase of association rate on partial helix stabilization by TFE” value is “around 1.4 fold”. Further, the “kon, Gianni et al.” value in data set [7] (compared at 25 °C, pseudo-wild-type his-tagged KIX) is recorded as “(2.5 ± 0.1) × 10^7 M^–1 s^–1”. In addition, the “amino acids in a helix in the bound form” value in data set [8] was 70%.

In data set [9], {FITC}-KEKRIKELELLLMSTENELKGQQAL (peptide, UniProt P06876 291-315, looked up) registered a Kd of 10.5 ± 0.7 µM.

B1: barstar: two folded proteins barnase and barstar, described as ultrafast associating proteins (protein, UniProt P11540 2-90, looked up)
Barstar: KKAVINGEQIRSISDLHQTLKKELALPEYYGENLDALWDCLTGWVEYPLVLEWRQFEQSKQLTENGAESVLQVFREAKAEGCDITIILS
As for B1, the “basal kon, infinite ionic strength” value in data set [10] (extrapolated to infinite ionic strength) is “around 10^5 M^–1 s^–1”. Besides, in data set [10] (low ionic strengths), the “kon at low ionic strength” value was “over 5 × 10^9 M^–1 s^–1”.

(Values after article PMC3807845 (The Journal of Physical Chemistry. B, 2013).)
